# Laboratory results: US6521265B1, “Method for applying a blood clotting agent” (Biolife, L.L.C., priority 2000, dated 2003)
# System: blood flowing from an open wound
# Experiment: Potassium ferrate used on blood flowing from an open wound
# Conditions: in vivo
# Excerpt: The apparent chemical ferrate reaction with water found in blood is as follows:
# As provided by the above compounds, a method of arresting blood and body fluid flow from an open skin wound is provided. An effective amount of any of the above salt ferrates, and preferably potassium ferrate in powder form, is applied directly onto the wound to interact with flowing blood or body fluid to accelerate its clotting.
substance,measurement,value
potassium ferrate,clotting of blood flowing from an open wound,effectively accomplishes the accelerated clotting of blood
